Reference: publication PMC10257182, “Discovery of senolytics using machine learning” (Nature Communications, 2023)
Where two headings read alike, the source gives them in different places.

Test system: non-senescent control IMR90 ER:RAS cells
Experiment: Nuclei count (Hoechst, high content imaging) senolytic assay, OIS model, non-senescent control cells
Type: cell-based, human
Conditions: Homo sapiens
Summary of the method: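 Cells seeded, left 24 h, then dosed across a 10-point […] series (10 μM down to 10 nM) with DMSO control. After 72 h, wells were fixed, permeabilised and stained with Hoechst. Nuclei were counted by high-content imaging in senescent and non-senescent IMR90 ER:RAS cultures.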

[1] = IMR-90, 72 h, Control, log (dose) [M] -5, 72 h, mean n=3 (Fig 3C), read-out: Mean % Cell Survival
[2] = IMR-90, 72 h, Control, log (dose) [M] -5.33, 72 h, mean n=3 (Fig 3C), read-out: Mean % Cell Survival
[3] = IMR-90, 72 h, Control, log (dose) [M] -5.66, 72 h, mean n=3 (Fig 3C), read-out: Mean % Cell Survival
[4] = IMR-90, 72 h, Control, log (dose) [M] -6, 72 h, mean n=3 (Fig 3C), read-out: Mean % Cell Survival
[5] = IMR-90, 72 h, Control, log (dose) [M] -6.33, 72 h, mean n=3 (Fig 3C), read-out: Mean % Cell Survival
[6] = IMR-90, 72 h, Control, log (dose) [M] -6.66, 72 h, mean n=3 (Fig 3C), read-out: Mean % Cell Survival
[7] = IMR-90, 72 h, Control, log (dose) [M] -7, 72 h, mean n=3 (Fig 3C), read-out: Mean % Cell Survival
[8] = IMR-90, 72 h, Control, log (dose) [M] -7.33, 72 h, mean n=3 (Fig 3C), read-out: Mean % Cell Survival
[9] = IMR-90, 72 h, Control, log (dose) [M] -7.66, 72 h, mean n=3 (Fig 3C), read-out: Mean % Cell Survival
[10] = IMR-90, 72 h, Control, log (dose) [M] -8, 72 h, mean n=3 (Fig 3C), read-out: Mean % Cell Survival
[11] = IMR-90, Control cells, log (dose) [M] -6.66, individual replicates, SUP FIG 4C, read-out: % Cell Survival
[12] = IMR-90, Control, log (dose) [M] -5, read-out: % Cell Survival
[13] = IMR-90, Control, log (dose) [M] -5.33, read-out: % Cell Survival
[14] = IMR-90, Control, log (dose) [M] -7, read-out: % Cell Survival
[15] = IMR-90, Control, log (dose) [M] -7.33, read-out: % Cell Survival
[16] = IMR-90, Control, log (dose) [M] -7.66, read-out: % Cell Survival
[17] = IMR-90, Control, log (dose) [M] -8, read-out: % Cell Survival
[18] = IMR-90, Control cells, log (dose) [M] -5.33, individual replicates, SUP FIG 4C, read-out: % Cell Survival
[19] = IMR-90, Control cells, log (dose) [M] -6.33, individual replicates, SUP FIG 4C, read-out: % Cell Survival
[20] = IMR-90, Control cells, log (dose) [M] -7, individual replicates, SUP FIG 4C, read-out: % Cell Survival
[21] = IMR-90, Control cells, log (dose) [M] -8, individual replicates, SUP FIG 4C, read-out: % Cell Survival
[22] = IMR-90, Control, log (dose) [M] -5.66, read-out: % Cell Survival
[23] = IMR-90, Control, log (dose) [M] -6.33, read-out: % Cell Survival
[24] = IMR-90, Control, log (dose) [M] -6.66, read-out: % Cell Survival

COc1cc(/C=C/C(=O)O[C@H]2CC[C@]34C[C@]35CC[C@]3(C)[C@@H]([C@H](C)CCC=C(C)C)CC[C@@]3(C)[C@@H]5CC[C@H]4C2(C)C)ccc1O [Gamma oryzanol, gamma oryzanol]
viability at 10 µM [1]: 87.1%
viability at 4.677 µM [2]: 92.9%
viability at 2.188 µM [3]: 89.6%
viability at 1 µM [4]: 86.2%
viability at 0.4677 µM [5]: 98.4%
viability at 0.2188 µM [6]: 99.1%
viability at 0.1 µM [7]: 109%
viability at 0.04677 µM [8]: 133%
viability at 0.02188 µM [9]: 118%
viability at 0.01 µM [10]: 115%
viability at 0.2188 µM [11]: 93.2%
viability at 10 µM [12]: 113%
viability at 4.68 µM [13]: 105%
viability at 0.1 µM [14]: 103%
viability at 0.04677 µM [15]: 103%
viability at 0.0219 µM [16]: 104%
viability at 0.01 µM [17]: 100%

O=c1c(O)c(-c2ccc(O)cc2O)oc2cc(O)cc(O)c12 [Morin, morin]
viability at 10 µM [1]: 95.2%
viability at 4.677 µM [2]: 93.9%
viability at 2.188 µM [3]: 96.1%
viability at 1 µM [4]: 81.3%
viability at 0.4677 µM [5]: 91.6%
viability at 0.2188 µM [6]: 86.4%
viability at 0.1 µM [7]: 91.3%
viability at 0.04677 µM [8]: 86.7%
viability at 0.02188 µM [9]: 91.5%
viability at 0.01 µM [10]: 99.5%
viability at 10 µM (IMR-90, Control cells, log (dose) [M] -5, individual replicates, SUP FIG 4C, read-out: % Cell Survival): 88.7%
viability at 4.677 µM [18]: 93.4%
viability at 2.188 µM (IMR-90, Control cells, log (dose) [M] -5.66, individual replicates, SUP FIG 4C, read-out: % Cell Survival): 102%
viability at 0.4677 µM [19]: 88.8%
viability at 0.1 µM [20]: 98.5%
viability at 0.01 µM [21]: 103%
viability at 10 µM [12]: 102%
viability at 2.19 µM [22]: 93.3%
viability at 0.468 µM [23]: 110%
viability at 0.219 µM [24]: 106%
viability at 0.1 µM [14]: 91.9%
viability at 0.0219 µM [16]: 98.9%
viability at 0.01 µM [17]: 97.2%

O=c1oc2c(O)c(O)cc3c(=O)oc4c(O)c(O)cc1c4c23 [Ellagic acid, ellagic acid]
viability at 10 µM [1]: 108%
viability at 4.677 µM [2]: 92.9%
viability at 2.188 µM [3]: 111%
viability at 1 µM [4]: 105%
viability at 0.4677 µM [5]: 109%
viability at 0.2188 µM [6]: 111%
viability at 0.1 µM [7]: 102%
viability at 0.04677 µM [8]: 107%
viability at 0.02188 µM [9]: 112%
viability at 0.01 µM [10]: 104%
viability at 0.4677 µM [19]: 118%
viability at 0.1 µM [20]: 103%
viability at 10 µM [12]: 133%
viability at 4.68 µM [13]: 122%
viability at 2.19 µM [22]: 120%
viability at 1 µM (IMR-90, Control, log (dose) [M] -6, read-out: % Cell Survival): 123%
viability at 0.468 µM [23]: 120%
viability at 0.219 µM [24]: 122%
viability at 0.1 µM [14]: 130%
viability at 0.01 µM [17]: 115%

CO[C@H]1C[C@@H]2CC[C@@H](C)[C@@](O)(O2)C(=O)C(=O)N2CCCC[C@H]2C(=O)O[C@H]([C@H](C)C[C@@H]2CC[C@H](n3cnnn3)[C@H](OC)C2)CC(=O)[C@H](C)/C=C(\C)[C@@H](O)[C@@H](OC)C(=O)[C@H](C)C[C@H](C)/C=C/C=C/C=C/1C [Zotarolimus, zotarolimus, reference compound]
viability at 10 µM [1]: 94.7%
viability at 4.677 µM [2]: 101%
viability at 2.188 µM [3]: 84.8%
viability at 1 µM [4]: 104%
viability at 0.4677 µM [5]: 108%
viability at 0.2188 µM [6]: 99.6%
viability at 0.1 µM [7]: 95.5%
viability at 0.04677 µM [8]: 105%
viability at 0.02188 µM [9]: 110%
viability at 0.01 µM [10]: 98.2%
viability at 4.677 µM [18]: 107%
viability at 1 µM (IMR-90, Control cells, log (dose) [M] -6, individual replicates, SUP FIG 4C, read-out: % Cell Survival): 109%
viability at 0.2188 µM [11]: 99.3%
viability at 0.1 µM [20]: 91%
viability at 0.04677 µM (IMR-90, Control cells, log (dose) [M] -7.33, individual replicates, SUP FIG 4C, read-out: % Cell Survival): 102%
viability at 0.02188 µM (IMR-90, Control cells, log (dose) [M] -7.66, individual replicates, SUP FIG 4C, read-out: % Cell Survival): 111%
viability at 0.01 µM [21]: 93.6%
viability at 4.68 µM [13]: 92.8%
viability at 2.19 µM [22]: 83.4%
viability at 0.468 µM [23]: 93.7%
viability at 0.219 µM [24]: 88.1%
viability at 0.1 µM [14]: 98.7%
viability at 0.04677 µM [15]: 99.6%
viability at 0.0219 µM [16]: 85.6%
viability at 0.01 µM [17]: 99.5%
